Results as given in patent publication US6555333B1, “Broad spectrum fastidious organism culture medium” (priority 2002, dated 2003).
Like-named read-outs stand apart in the source and are kept apart here.

Tests used:
Haemophilus influenzae [1] = test: MIC testing (Etest strip) on the culture medium of Example 1; format: cell-based; conditions: for Observed MIC Breakpoints I: I = intermediate; for Observed MIC Breakpoints R: R = resistant; for Observed MIC Breakpoints S: S = susceptible
From the text: (§1) The culture medium of the invention was used in both Minimum Inhibitory Concentration (MIC) testing and Bauer-Kirby Disk Susceptibility testing for the pathogenic bacteria noted in the table below with the antimicrobial agents noted therein using the protocol and standards set forth in NCCLS Bulletin No. M2-A7 and in the Supplemental Tables appendix thereto, the disclosures of which are incorporated herein by reference.
(§2) The general procedure was as follows: pathogenic bacteria specimens were obtained from American Type Culture Collection control lots and 10 isolates were obtained from all species except Campylobacter, from which 6 isolates were obtained. Petri dishes 150 mm in diameter were autoclaved and filled with the culture medium of Example 1 and brought to room temperature. Each plate was then swab-inoculated with a suspension of one of the pathogenic bacteria equivalent to a 0.5 McFarland Standard, and then the antimicrobial-impregnated disk or antimicrobial-impregnated strip for IC measurement (Etest strip from Biodisk AB, of Solna, Sweden) were pressed into the surface of the culture medium. The plates were incubated at 35° C. for 24 hours in atmospheres containing 5-7% CO2 and the disk diffusion zones were measured, with the exception that plates inoculated with the Campylobacter species were placed into microaerophilic chambers from Mitsubishi Gas & Chemical Co. of Japan and incubated at 35° C. for 48 hours. The tests were conducted in duplicate for each pathogenic bacteria/antimicrobial agent combination on three batches of the culture medium of Example 1, for a total of six tests for each combination. Geometric mean MIC values and arithmetic mean values of zone diameters from the Disk Diffusion tests were calculated from the data, and are reported in the table below.

Haemophilus influenzae [2] = test: Bauer-Kirby Disk Susceptibility testing on the culture medium of Example 1; format: cell-based; conditions: for Observed Disk Diff. Breakpoints I: I = intermediate; for Observed Disk Diff. Breakpoints R: R = resistant; for Observed Disk Diff. Breakpoints S: S = susceptible
From the text: as §1, §2

Haemophilus influenzae [3] = conditions: different known culture media; cited from earlier work
Neisseria gonorrhoeae [4] = test: MIC testing (Etest strip) on the culture medium of Example 1; format: cell-based
From the text: as §1, §2

Neisseria meningitides [5] = test: as above; format: cell-based
From the text: as §1, §2

S. pneumoniae [6] = test: as above; format: cell-based; conditions: for Observed MIC Breakpoints I: I = intermediate; for Observed MIC Breakpoints R: R = resistant; for Observed MIC Breakpoints S: S = susceptible
From the text: as §1, §2

Viridans streptococci [7] = test: as above; format: cell-based; conditions: for Observed MIC Breakpoints I: I = intermediate; for Observed MIC Breakpoints R: R = resistant; for Observed MIC Breakpoints S: S = susceptible
From the text: as §1, §2

β-hemolytic streptococci [8] = test: as above; format: cell-based; conditions: for Observed MIC Breakpoints S: S = susceptible
From the text: as §1, §2

Neisseria gonorrhoeae [9] = test: Bauer-Kirby Disk Susceptibility testing on the culture medium of Example 1; format: cell-based
From the text: as §1, §2

Neisseria meningitides [10] = test: as above; format: cell-based
From the text: as §1, §2

Viridans streptococci [11] = test: as above; format: cell-based; conditions: for Observed Disk Diff. Breakpoints I: I = intermediate; for Observed Disk Diff. Breakpoints R: R = resistant; for Observed Disk Diff. Breakpoints S: S = susceptible
From the text: as §1, §2

β-hemolytic streptococci [12] = test: as above; format: cell-based; conditions: for Observed Disk Diff. Breakpoints R: R = resistant
From the text: as §1, §2

S. pneumoniae [13] = conditions: different known culture media, cited from earlier work
Viridans streptococci [14] = conditions: different known culture media; cited from earlier work
Neisseria gonorrhoeae [15] = conditions: different known culture media; cited from earlier work
Campylobacter species [16] = test: MIC testing (Etest strip) on the culture medium of Example 1; format: cell-based; conditions: microaerophilic, 48 hours
From the text: as §1, §2

Campylobacter species [17] = test: Bauer-Kirby Disk Susceptibility testing on the culture medium of Example 1; format: cell-based; conditions: microaerophilic, 48 hours
From the text: as §1, §2

S. pneumoniae [18] = test: as above; format: cell-based; conditions: for Observed Disk Diff. Breakpoints I: I = intermediate; for Observed Disk Diff. Breakpoints R: R = resistant; for Observed Disk Diff. Breakpoints S: S = susceptible
From the text: as §1, §2

β-hemolytic streptococci [19] = conditions: different known culture media; cited from earlier work

Compound	Observed MIC Breakpoints I (Haemophilus influenzae [1]) [µg/mL]	Observed MIC Breakpoints R (Haemophilus influenzae [1])	Observed MIC Breakpoints S (Haemophilus influenzae [1])	Observed Disk Diff. Breakpoints I (Haemophilus influenzae [2])	Observed Disk Diff. Breakpoints R (Haemophilus influenzae [2])	Observed Disk Diff. Breakpoints S (Haemophilus influenzae [2])	Observed MIC Breakpoints I (Viridans streptococci [7]) [µg/mL]	Observed MIC Breakpoints R (Viridans streptococci [7])	Observed MIC Breakpoints S (Viridans streptococci [7])	Observed MIC Breakpoints S (β-hemolytic streptococci [8])	Observed Disk Diff. Breakpoints I (Viridans streptococci [11])	Observed Disk Diff. Breakpoints R (Viridans streptococci [11])	Observed Disk Diff. Breakpoints S (Viridans streptococci [11])	Observed Disk Diff. Breakpoints R (β-hemolytic streptococci [12])	Reported MIC Breakpoints (Viridans streptococci [14])	Observed MIC Breakpoints I (S. pneumoniae [6]) [µg/mL]	Observed MIC Breakpoints R (S. pneumoniae [6])	Observed MIC Breakpoints S (S. pneumoniae [6])	Observed Disk Diff. Breakpoints I (S. pneumoniae [18])	Observed Disk Diff. Breakpoints R (S. pneumoniae [18])	other results
CC1(C)S[C@@H]2[C@H](NC(=O)[C@H](N)c3ccccc3)C(=O)N2[C@H]1C(=O)O [Ampicillin]	8	≧16 μg/mL	≦4 μg/mL	13-16 mm	≦12 mm	≧17 mm															Reported MIC Breakpoints (Haemophilus influenzae [3]): (1-4) μg/mL
Penicillin							2	≧4 μg/mL	≦1 μg/mL	0.12 µg/mL	20-23 mm	≦19 mm	≧24 mm	≦26 mm	(0.12-4) μg/mL						Observed MIC Breakpoints I (Neisseria gonorrhoeae [4]; I = intermediate): 0.12 to 1 µg/mL; Observed MIC Breakpoints R (Neisseria gonorrhoeae [4]; R = resistant): ≧2 μg/mL; Observed MIC Breakpoints S (Neisseria gonorrhoeae [4]; S = susceptible): ≦0.06 μg/mL; Observed MIC Breakpoints I (Neisseria meningitides [5]; I = intermediate): 0.25 µg/mL; Observed MIC Breakpoints R (Neisseria meningitides [5]; R = resistant): ≧0.5 μg/mL; Observed MIC Breakpoints S (Neisseria meningitides [5]; S = susceptible): ≦0.12 μg/mL; Observed MIC Breakpoints I (S. pneumoniae [6]; Lower Respiratory Tract): 2 µg/mL; Observed MIC Breakpoints R (S. pneumoniae [6]; Lower Respiratory Tract): ≧4 μg/mL; Observed MIC Breakpoints S (S. pneumoniae [6]; Lower Respiratory Tract): ≦1 μg/mL; Observed MIC Breakpoints I (S. pneumoniae [6]; meningitis): 0.25 to 1 µg/mL; Observed MIC Breakpoints R (S. pneumoniae [6]; meningitis): ≧2 μg/mL; Observed MIC Breakpoints S (S. pneumoniae [6]; meningitis): ≦0.12 μg/mL; Observed Disk Diff. Breakpoints I (Neisseria gonorrhoeae [9]; I = intermediate): 24-38 mm; Observed Disk Diff. Breakpoints R (Neisseria gonorrhoeae [9]; R = resistant): ≦23 mm; Observed Disk Diff. Breakpoints I (Neisseria meningitides [10]; I = intermediate): 24-25 mm; Observed Disk Diff. Breakpoints R (Neisseria meningitides [10]; R = resistant): ≦23 mm; Observed Disk Diff. Breakpoints S (Neisseria meningitides [10]; S = susceptible): ≧26 mm; Reported MIC Breakpoints (S. pneumoniae [13]; meningitis): (0.06-2) μg/mL; Reported MIC Breakpoints (Neisseria gonorrhoeae [15]): (0.06-2) μg/mL
CC[C@H]1OC(=O)[C@H](C)[C@@H](O[C@H]2C[C@@](C)(OC)[C@@H](O)[C@H](C)O2)[C@H](C)[C@@H](O[C@@H]2O[C@H](C)C[C@H](N(C)C)[C@H]2O)[C@](C)(O)C[C@@H](C)C(=O)[C@H](C)[C@@H](O)[C@]1(C)O [Erythromycin]							1 to 32	≧64 μg/mL	≦0.5 μg/mL	≦0.5 μg/mL	9-23 mm	≦8 mm	≧24 mm	≦8 mm	(0.25-1) μg/mL	1 to 32	≧64 μg/mL	≦0.5 μg/mL	9-23 mm	≦8 mm	Observed MIC Breakpoints R (Campylobacter species [16]; R = resistant): ≧8 μg/mL; Observed MIC Breakpoints S (Campylobacter species [16]; S = susceptible): ≦4 μg/mL; Observed MIC Breakpoints I (β-hemolytic streptococci [8]; I = intermediate): 1 to 32 µg/mL; Observed MIC Breakpoints R (β-hemolytic streptococci [8]; R = resistant): ≧64 μg/mL; Observed Disk Diff. Breakpoints R (Campylobacter species [17]; R = resistant): ≦20 mm; Observed Disk Diff. Breakpoints S (Campylobacter species [17]; S = susceptible): ≧21 mm; Observed Disk Diff. Breakpoints S (S. pneumoniae [18]): ≧24 mm; Observed Disk Diff. Breakpoints S (β-hemolytic streptococci [12]; S = susceptible): ≧21 mm; Reported MIC Breakpoints (S. pneumoniae [13]): (0.25-1) μg/mL; Reported MIC Breakpoints (β-hemolytic streptococci [19]): (0.25-1) μg/mL
CN(C)[C@@H]1C(O)=C(C(N)=O)C(=O)[C@@]2(O)C(O)=C3C(=O)c4c(O)cccc4[C@@](C)(O)[C@H]3C[C@@H]12 [Tetracycline]	4	≧8 μg/mL	≦2 μg/mL	19-24 mm	≦20 mm	≧25 mm	2 to 4	≧8 μg/mL	≦1 μg/mL		18-22 mm	≦17 mm	≧23 mm			2 to 4	≧8 μg/mL	≦1 μg/mL	14-22 mm	≦13 mm	Observed Disk Diff. Breakpoints S (S. pneumoniae [18]): ≧23 mm
